Reference: US20150133297A1, “NEW ANTIFUNGAL COMPOSITIONS” (DSM IP ASSETS B.V., priority 2012, published 2015)
Where “and” joins values, the source holds several entries; their conditions need not be identical. Equal values may be shown once.

Tests used:
[1] = system: Penicillium italicum; experiment: Treatment of oranges (Examples 6-9): wounded, inoculated, wound treated with antifungal composition; assay type: in vivo; settings: for Observed antifungal activity O (%): oranges, 20° C.
Method: During incubation, mould growth on the strawberries was assessed in a twofold manner: (i) the number of moulded strawberries per total of 12 strawberries was counted; and (ii) the antifungal activity (in %) of the individual and combined active ingredients was determined by calculating the reduction in mould growth observed on the strawberries treated with the antifungal composition in comparison to the mould growth on the strawberries treated with the control composition. The expected antifungal activity (E in %) of the combined antifungal composition comprising both active ingredients was calculated according to the Colby equation (Colby, 1967): […]
Eight fresh, organic oranges were used per treatment. Each orange was soaked in a 180 ppm hypochlorite solution for 10 minutes, then rinsed thoroughly with fresh tap water and dried. The peel of each disinfected orange was wounded once using a cork borer according to the method described by de Lapeyre de Bellaire and Dubois (1987). Subsequently, each wound was inoculated with 10 μl of a Penicillium italicum suspension containing 5×10^5 of spores/ml. After incubation for 3 hours at 20° C., each wound and the orange peel area of 1 cm around the wound was treated with in total 150 μl of a freshly prepared aqueous antifungal composition comprising either 500 ppm natamycin (DSM Food Specialties, Delft, The Netherlands), 500 ppm fenpropidin or both. Each antifungal composition also comprised 3.2% (w/w) beeswax, 0.8% (w/w) glycerol, 0.7% (w/w) polyoxyethylene sorbitan monostearate (Tween 60), 0.1% (w/w) polyoxyethylene sorbitan monooleate (Tween 80), 0.05% (w/w) methylhydroxyethyl-cellulose (MHEC), 0.03% (w/w) anti-foaming agent, 0.02% (w/w) xanthan gum, 0.02% (w/w) citric acid, 0.01% (w/w) lactic acid and 0.01% potassium sorbate. A composition without natamycin or fenpropidin was used as control. […] The treated oranges were incubated in a closed box in the dark at 20° C. and assessed on mould growth during a 28-day incubation period. The antifungal activity (in %) of the individual and combined active ingredients was determined by calculating the reduction in mould growth observed on the oranges treated with the antifungal composition in comparison to the mould growth on the oranges treated with the control composition according to the Colby method (Colby, 1967) as described in Example 5.
(§1) The experiment was conducted as described in Example 6, except for the fact that each wounded and inoculated orange was treated with 150 μl of a freshly prepared aqueous antifungal composition comprising either 250 ppm natamycin (DSM Food Specialties, Delft, The Netherlands), 250 ppm fenpropidin or both. During the 26-day incubation period, the treated oranges were assessed on mould growth according to the two methods described in Example 5.
as §1, with “either 500” for “either 250”, “Netherlands), 400” for “Netherlands), 250”, “ppm spiroxamine” for “ppm fenpropidin”
as §1, with “Netherlands), 200” for “Netherlands), 250”, “ppm spiroxamine” for “ppm fenpropidin”

[2] = system: Botrytis cinerea; experiment: Treatment of strawberries (Example 5): wounded, inoculated, dipped in antifungal composition; assay type: in vivo; settings: 500 ppm natamycin, 600 ppm fenpropidin or both
Method: Twelve fresh, organic strawberries were used per treatment. Each strawberry was wounded with a 0.5 mm long cut and each wound was inoculated with 10 μl of a Botrytis cinerea suspension containing 1×10^5 of spores/ml. […] A composition without natamycin or fenpropidin was used as control. […] The treated strawberries were incubated in a closed box in the dark at 20° C. for 9 days. During incubation, mould growth on the strawberries was assessed in a twofold manner: […] The expected antifungal activity (E in %) of the combined antifungal composition comprising both active ingredients was calculated according to the Colby equation (Colby, 1967): […] wherein X and Y are the observed antifungal activities (in %) of the individual active ingredients X and Y, respectively.

[3] = Day 11, 20° C., 250 ppm natamycin, 200 ppm spiroxamine or both
[4] = Day 12, 20° C., 250 ppm natamycin, 200 ppm spiroxamine or both
[5] = Day 13, 20° C., 250 ppm natamycin, 200 ppm spiroxamine or both
[6] = Day 14-15, 20° C., 250 ppm natamycin, 200 ppm spiroxamine or both
[7] = Day 14-16, 20° C., 500 ppm natamycin, 400 ppm spiroxamine or both
[8] = Day 16, 20° C., 250 ppm natamycin, 200 ppm spiroxamine or both
[9] = Day 18, 20° C., 250 ppm natamycin, 200 ppm spiroxamine or both
[10] = Day 18, 20° C., 500 ppm natamycin, 400 ppm spiroxamine or both
[11] = Day 19-21, 20° C., 500 ppm natamycin, 400 ppm spiroxamine or both
[12] = Day 19-25, 20° C., 250 ppm natamycin, 200 ppm spiroxamine or both
[13] = Day 22-23, 20° C., 500 ppm natamycin, 400 ppm spiroxamine or both
[14] = Day 26, 20° C., 250 ppm natamycin, 200 ppm spiroxamine or both
[15] = days 19 through 26, 250 ppm natamycin, 200 ppm spiroxamine or both
[16] = day 11, 250 ppm natamycin, 200 ppm spiroxamine or both
[17] = day 12, 250 ppm natamycin, 200 ppm spiroxamine or both
[18] = day 13, 250 ppm natamycin, 200 ppm spiroxamine or both
[19] = day 14, 250 ppm natamycin, 200 ppm spiroxamine or both
[20] = day 15, 250 ppm natamycin, 200 ppm spiroxamine or both
[21] = day 16, 250 ppm natamycin, 200 ppm spiroxamine or both
[22] = day 18, 250 ppm natamycin, 200 ppm spiroxamine or both
[23] = day 18, 500 ppm natamycin, 400 ppm spiroxamine or both
[24] = day 19, 250 ppm natamycin, 200 ppm spiroxamine or both
[25] = day 19, 500 ppm natamycin, 400 ppm spiroxamine or both
[26] = day 20, 250 ppm natamycin, 200 ppm spiroxamine or both
[27] = day 20, 500 ppm natamycin, 400 ppm spiroxamine or both
[28] = day 21, 250 ppm natamycin, 200 ppm spiroxamine or both
[29] = day 21, 500 ppm natamycin, 400 ppm spiroxamine or both
[30] = day 22, 250 ppm natamycin, 200 ppm spiroxamine or both
[31] = day 22, 500 ppm natamycin, 400 ppm spiroxamine or both
[32] = day 23, 250 ppm natamycin, 200 ppm spiroxamine or both
[33] = day 23, 500 ppm natamycin, 400 ppm spiroxamine or both
[34] = day 25-26, 500 ppm natamycin, 400 ppm spiroxamine or both
[35] = day 25, 250 ppm natamycin, 200 ppm spiroxamine or both
[36] = day 26, 250 ppm natamycin, 200 ppm spiroxamine or both

SMILES: CCCN(CC)CC1COC2(CCC(C(C)(C)C)CC2)O1 (stereo not shown) [Spiroxamine, spiroxamine]
- Number of moulded oranges/total number of 8 oranges [1, 3]: 7 and 7/8
- Number of moulded oranges/total number of 8 oranges [1, 4]: 8 and 8/8
- Number of moulded oranges/total number of 8 oranges [1, 5]: 8/8
- Number of moulded oranges/total number of 8 oranges [1, 6]: 8/8
- Number of moulded oranges/total number of 8 oranges [1, 7]: 8/8
- Number of moulded oranges/total number of 8 oranges [1, 8]: 8 and 8/8
- Number of moulded oranges/total number of 8 oranges [1, 9]: 8 and 8/8
- Number of moulded oranges/total number of 8 oranges [1, 10]: 8/8
- Number of moulded oranges/total number of 8 oranges [1, 11]: 8 and 8/8
- Number of moulded oranges/total number of 8 oranges [1, 12]: 8/8
- Number of moulded oranges/total number of 8 oranges [1, 13]: 8 and 8/8
- Number of moulded oranges/total number of 8 oranges [1, 14]: 8/8
- moulded oranges of the 8 oranges ([1]; after 14 through 16 days and 18 days of incubation, 500 ppm natamycin, 400 ppm spiroxamine): 8
- moulded oranges of the 8 oranges ([1]; days 13 through 15, 250 ppm natamycin, 200 ppm spiroxamine or both): 8
- moulded oranges of the 8 oranges [1, 15]: 8
- Observed antifungal activity O (%) [1, 16]: 75%
- Observed antifungal activity O (%) [1, 17]: 64%
- Observed antifungal activity O (%) [1, 18]: 48%
- Observed antifungal activity O (%) [1, 19]: 39%
- Observed antifungal activity O (%) [1, 20]: 31%
- Observed antifungal activity O (%) [1, 21]: 20%
- Observed antifungal activity O (%) [1, 22]: 3%
- Observed antifungal activity O (%) [1, 23]: 22%
- Observed antifungal activity O (%) [1, 24]: 0%
- Observed antifungal activity O (%) [1, 25]: 8%
- Observed antifungal activity O (%) [1, 26]: 0%
- Observed antifungal activity O (%) [1, 27]: 0%
- Observed antifungal activity O (%) [1, 28]: 0%
- Observed antifungal activity O (%) [1, 29]: 0%
- Observed antifungal activity O (%) [1, 30]: 0%
- Observed antifungal activity O (%) [1, 31]: 0%
- Observed antifungal activity O (%) [1, 32]: 0%
- Observed antifungal activity O (%) [1, 33]: 0%
- Observed antifungal activity O (%) [1, 34]: 0%
- Observed antifungal activity O (%) [1, 35]: 0%
- Observed antifungal activity O (%) [1, 36]: 0%

SMILES: C[C@@H]1C/C=C/C=C/C=C/C=C/[C@H](O[C@@H]2O[C@H](C)[C@@H](O)[C@H](N)[C@@H]2O)C[C@@H]2O[C@](O)(C[C@@H](O)C[C@H]3O[C@@H]3/C=C/C(=O)O1)C[C@H](O)[C@H]2C(=O)O [Natamycin, natamycin]
- Number of moulded oranges/total number of 8 oranges [1, 3]: 5 and 5/8
- Number of moulded oranges/total number of 8 oranges [1, 4]: 5 and 5/8
- Number of moulded oranges/total number of 8 oranges [1, 5]: 5/8
- Number of moulded oranges/total number of 8 oranges [1, 6]: 6/8
- Number of moulded oranges/total number of 8 oranges [1, 7]: 5/8
- Number of moulded oranges/total number of 8 oranges [1, 8]: 6 and 6/8
- Number of moulded oranges/total number of 8 oranges [1, 9]: 6 and 6/8
- Number of moulded oranges/total number of 8 oranges ([1]; Day 18, 20° C., 250 ppm natamycin, 250 ppm fenpropidin or both): 6/8
- Number of moulded oranges/total number of 8 oranges [1, 10]: 6/8
- Number of moulded oranges/total number of 8 oranges ([1]; Day 19, 20° C., 250 ppm natamycin, 250 ppm fenpropidin or both): 7/8
- Number of moulded oranges/total number of 8 oranges [1, 11]: 6 and 6/8
- Number of moulded oranges/total number of 8 oranges [1, 12]: 7/8
- Number of moulded oranges/total number of 8 oranges ([1]; Day 20, 20° C., 250 ppm natamycin, 250 ppm fenpropidin or both): 7/8
- Number of moulded oranges/total number of 8 oranges ([1]; Day 21-22, 20° C., 250 ppm natamycin, 250 ppm fenpropidin or both): 7 and 7/8
- Number of moulded oranges/total number of 8 oranges [1, 13]: 6 and 6/8
- Number of moulded oranges/total number of 8 oranges ([1]; Day 23-26, 20° C., 250 ppm natamycin, 250 ppm fenpropidin or both): 7 and 7/8
- Number of moulded oranges/total number of 8 oranges [1, 14]: 7/8
- moulded oranges of the 8 oranges [1, 15]: 7
- Observed antifungal activity O (%) [1, 16]: 80%
- Observed antifungal activity O (%) [1, 17]: 73%
- Observed antifungal activity O (%) [1, 18]: 63%
- Observed antifungal activity O (%) [1, 19]: 50%
- Observed antifungal activity O (%) [1, 20]: 46%
- Observed antifungal activity O (%) [1, 21]: 43%
- Observed antifungal activity O (%) [1, 22]: 41%
- Observed antifungal activity O (%) ([1]; day 18, 250 ppm natamycin, 250 ppm fenpropidin or both): 41%
- Observed antifungal activity O (%) [1, 23]: 32%
- Observed antifungal activity O (%) [1, 24]: 36%
- Observed antifungal activity O (%) ([1]; day 19, 250 ppm natamycin, 250 ppm fenpropidin or both): 36%
- Observed antifungal activity O (%) [1, 25]: 29%
- Observed antifungal activity O (%) [1, 26]: 34%
- Observed antifungal activity O (%) ([1]; day 20, 250 ppm natamycin, 250 ppm fenpropidin or both): 34%
- Observed antifungal activity O (%) [1, 27]: 20%
- Observed antifungal activity O (%) [1, 28]: 32%
- Observed antifungal activity O (%) ([1]; day 21, 250 ppm natamycin, 250 ppm fenpropidin or both): 32%
- Observed antifungal activity O (%) [1, 29]: 16%
- Observed antifungal activity O (%) [1, 30]: 29%
- Observed antifungal activity O (%) ([1]; day 22, 250 ppm natamycin, 250 ppm fenpropidin or both): 29%
- Observed antifungal activity O (%) [1, 31]: 14%
- Observed antifungal activity O (%) ([1]; day 22, 500 ppm natamycin, 500 ppm fenpropidin or both): 14%
- Observed antifungal activity O (%) [1, 32]: 25%
- Observed antifungal activity O (%) ([1]; day 23, 250 ppm natamycin, 250 ppm fenpropidin or both): 25%
- Observed antifungal activity O (%) [1, 33]: 14%
- Observed antifungal activity O (%) ([1]; day 23, 500 ppm natamycin, 500 ppm fenpropidin or both): 14%
- Observed antifungal activity O (%) [1, 34]: 14%
- Observed antifungal activity O (%) [1, 35]: 19%
- Observed antifungal activity O (%) ([1]; day 25, 250 ppm natamycin, 250 ppm fenpropidin or both): 19%
- Observed antifungal activity O (%) ([1]; day 25, 500 ppm natamycin, 500 ppm fenpropidin or both): 14%
- Observed antifungal activity O (%) [1, 36]: 17%
- Observed antifungal activity O (%) ([1]; day 26, 250 ppm natamycin, 250 ppm fenpropidin or both): 17%
- Observed antifungal activity O (%) ([1]; day 26, 500 ppm natamycin, 500 ppm fenpropidin or both): 14%
- Observed antifungal activity O (%) ([1]; day 27, 500 ppm natamycin, 500 ppm fenpropidin or both): 14%
- Observed antifungal activity O (%) ([1]; day 28, 500 ppm natamycin, 500 ppm fenpropidin or both): 14%
- Number of moulded strawberries/total number of 12 strawberries ([2]; Day 5, 20° C.): 11
- Number of moulded strawberries/total number of 12 strawberries ([2]; Day 6, 20° C.): 12
